# Data reported in PubChem BioAssay AID2060886 (Molecular Pharmacology Branch, DTP, NCI, 2025).
# Tested on: 653999-131-R-J2-PDC complex spheroids, growth inhibition
# Assay: Anticancer human tumor 653999-131-R-J2-PDC patient-derived lung adenocarcinoma cell line growth inhibition [RAS]
# Conditions: for IC50: curve of first compound; for viability, T/C: stronger effect = lower value
# In short: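 Tumour cells grown as complex spheroids with HUVEC endothelial cells and mesenchymal stem cells, treated with RAS pathway inhibitor combinations. Each agent spans half-log steps from near clinical Cmax, or 10 microM where Cmax is unknown.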
# [1] = second compound 0.000949 µM, first compound 0.0316 µM
# [2] = second compound 0.000949 µM, first compound 0.1 µM
# [3] = second compound 0.000949 µM, first compound 0.316 µM
# [4] = second compound 0.000949 µM, first compound 1 µM
# [5] = second compound 0.000949 µM, first compound 3.16 µM
# [6] = second compound 0.000949 µM, first compound 10 µM
# [7] = second compound 0.003 µM, first compound 0.0316 µM
# [8] = second compound 0.003 µM, first compound 0.1 µM
# [9] = second compound 0.003 µM, first compound 0.316 µM
# [10] = second compound 0.003 µM, first compound 1 µM
# [11] = second compound 0.003 µM, first compound 3.16 µM
# [12] = second compound 0.003 µM, first compound 10 µM
# [13] = second compound 0.00949 µM, first compound 0.0316 µM
# [14] = second compound 0.00949 µM, first compound 0.1 µM
# [15] = second compound 0.00949 µM, first compound 0.316 µM
# [16] = second compound 0.00949 µM, first compound 1 µM
# [17] = second compound 0.00949 µM, first compound 3.16 µM
# [18] = second compound 0.00949 µM, first compound 10 µM
# [19] = second compound 0.03 µM, first compound 0.0316 µM
# [20] = second compound 0.03 µM, first compound 0.1 µM
# [21] = second compound 0.03 µM, first compound 0.316 µM
# [22] = second compound 0.03 µM, first compound 1 µM
# [23] = second compound 0.03 µM, first compound 3.16 µM
# [24] = second compound 0.03 µM, first compound 10 µM
# [25] = second compound 0.0949 µM, first compound 0.0316 µM
# [26] = second compound 0.0949 µM, first compound 0.1 µM
# [27] = second compound 0.0949 µM, first compound 0.316 µM
# [28] = second compound 0.0949 µM, first compound 1 µM
# [29] = second compound 0.0949 µM, first compound 3.16 µM
# [30] = second compound 0.0949 µM, first compound 10 µM
# [31] = second compound 0.3 µM, first compound 0.0316 µM
# [32] = second compound 0.3 µM, first compound 0.1 µM
# [33] = second compound 0.3 µM, first compound 0.316 µM
# [34] = second compound 0.3 µM, first compound 1 µM
# [35] = second compound 0.3 µM, first compound 3.16 µM
# [36] = second compound 0.3 µM, first compound 10 µM
# 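Also: spheroids exposed to the agents for seven days before the readout.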
compound,measurement,setting,value
Cc1nc(N2CCC3(CC2)COC(C)C3N)c(CO)nc1Sc1ccnc(N)c1Cl (stereo unspecified) + CCn1c(-c2cccnc2C(C)OC)c2c3cc(ccc31)N1CCOC(CC(NC(=O)C(C(C)C)N(C)C(=O)C3(F)CCN(C(=O)C#CC(C)(C)N(C)C)CC3)C(=O)N3CCCC(N3)C(=O)OCC(C)(C)C2)C1,IC50,second compound 0.000949 µM,> 10 µM
same,IC50,second compound 0.003 µM,> 10 µM
same,IC50,second compound 0.00949 µM,> 10 µM
same,IC50,second compound 0.03 µM,> 10 µM
same,IC50,second compound 0.0949 µM,> 10 µM
same,IC50,second compound 0.3 µM,> 10 µM
same,"viability, T/C",[1],85.9%
same,"viability, T/C",[2],87.6%
same,"viability, T/C",[3],81.8%
same,"viability, T/C",[4],67.6%
same,"viability, T/C",[5],81.7%
same,"viability, T/C",[6],78.9%
same,"viability, T/C",[7],103%
same,"viability, T/C",[8],98.2%
same,"viability, T/C",[9],83.5%
same,"viability, T/C",[10],70.4%
same,"viability, T/C",[11],78.6%
same,"viability, T/C",[12],80.3%
same,"viability, T/C",[13],96%
same,"viability, T/C",[14],71%
same,"viability, T/C",[15],84.8%
same,"viability, T/C",[16],87%
same,"viability, T/C",[17],75.2%
same,"viability, T/C",[18],81.2%
same,"viability, T/C",[19],89.6%
same,"viability, T/C",[20],76.8%
same,"viability, T/C",[21],83.6%
same,"viability, T/C",[22],75.8%
same,"viability, T/C",[23],83.2%
same,"viability, T/C",[24],76.8%
same,"viability, T/C",[25],92%
same,"viability, T/C",[26],82.2%
same,"viability, T/C",[27],93.6%
same,"viability, T/C",[28],86.5%
same,"viability, T/C",[29],94.4%
same,"viability, T/C",[30],77.4%
same,"viability, T/C",[31],84.1%
same,"viability, T/C",[32],88.3%
same,"viability, T/C",[33],72.4%
same,"viability, T/C",[34],89.7%
same,"viability, T/C",[35],80.3%
same,"viability, T/C",[36],81.7%
NC1c2ccccc2OC12CCN(c1cnc3c(N4CCCc5ncccc54)n[nH]c3n1)CC2 (stereo unspecified) + CCn1c(-c2cccnc2C(C)OC)c2c3cc(ccc31)N1CCOC(CC(NC(=O)C(C(C)C)N(C)C(=O)C3(F)CCN(C(=O)C#CC(C)(C)N(C)C)CC3)C(=O)N3CCCC(N3)C(=O)OCC(C)(C)C2)C1,IC50,second compound 0.000949 µM,> 10 µM
same,IC50,second compound 0.003 µM,> 10 µM
same,IC50,second compound 0.00949 µM,> 10 µM
same,IC50,second compound 0.03 µM,> 10 µM
same,IC50,second compound 0.0949 µM,> 10 µM
same,IC50,second compound 0.3 µM,> 10 µM
same,"viability, T/C",[1],74.6%
same,"viability, T/C",[2],75.4%
same,"viability, T/C",[3],82.6%
same,"viability, T/C",[4],71.6%
same,"viability, T/C",[5],71.9%
same,"viability, T/C",[6],85.5%
same,"viability, T/C",[7],83.4%
same,"viability, T/C",[8],83.3%
same,"viability, T/C",[9],75.5%
same,"viability, T/C",[10],67%
same,"viability, T/C",[11],75.8%
same,"viability, T/C",[12],77.5%
same,"viability, T/C",[13],70.3%
same,"viability, T/C",[14],82.2%
same,"viability, T/C",[15],67.6%
same,"viability, T/C",[16],76.2%
same,"viability, T/C",[17],72.3%
same,"viability, T/C",[18],65.3%
same,"viability, T/C",[19],68.9%
same,"viability, T/C",[20],66.2%
same,"viability, T/C",[21],64.1%
same,"viability, T/C",[22],72%
same,"viability, T/C",[23],76.2%
same,"viability, T/C",[24],67.7%
same,"viability, T/C",[25],78.6%
same,"viability, T/C",[26],71.4%
same,"viability, T/C",[27],73.5%
same,"viability, T/C",[28],71.9%
same,"viability, T/C",[29],72.1%
same,"viability, T/C",[30],73.5%
same,"viability, T/C",[31],83.8%
same,"viability, T/C",[32],72.2%
same,"viability, T/C",[33],87.3%
same,"viability, T/C",[34],79.6%
same,"viability, T/C",[35],70%
same,"viability, T/C",[36],71.7%
Nc1ccn(C2OC(CO)C(O)C2(F)F)c(=O)n1 (stereo unspecified) + CCn1c(-c2cccnc2C(C)OC)c2c3cc(ccc31)N1CCOC(CC(NC(=O)C(C(C)C)N(C)C(=O)C3(F)CCN(C(=O)C#CC(C)(C)N(C)C)CC3)C(=O)N3CCCC(N3)C(=O)OCC(C)(C)C2)C1,IC50,second compound 0.000949 µM,0.0706 µM
same,IC50,second compound 0.003 µM,0.0661 µM
same,IC50,second compound 0.00949 µM,0.0619 µM
same,IC50,second compound 0.03 µM,0.0644 µM
same,IC50,second compound 0.0949 µM,0.0425 µM
same,IC50,second compound 0.3 µM,0.0593 µM
same,"viability, T/C","second compound 0.000949 µM, first compound 0.00316 µM",93.8%
same,"viability, T/C","second compound 0.000949 µM, first compound 0.01 µM",74.9%
same,"viability, T/C",[1],59.8%
same,"viability, T/C",[2],41.4%
same,"viability, T/C",[3],49.4%
same,"viability, T/C",[4],37.4%
same,"viability, T/C","second compound 0.003 µM, first compound 0.00316 µM",110%
same,"viability, T/C","second compound 0.003 µM, first compound 0.01 µM",74.8%
same,"viability, T/C",[7],57.9%
same,"viability, T/C",[8],44.7%
same,"viability, T/C",[9],44%
same,"viability, T/C",[10],36.1%
same,"viability, T/C","second compound 0.00949 µM, first compound 0.00316 µM",93.1%
same,"viability, T/C","second compound 0.00949 µM, first compound 0.01 µM",67.1%
same,"viability, T/C",[13],59.7%
same,"viability, T/C",[14],45.5%
same,"viability, T/C",[15],36.9%
same,"viability, T/C",[16],38.2%
same,"viability, T/C","second compound 0.03 µM, first compound 0.00316 µM",93.8%
same,"viability, T/C","second compound 0.03 µM, first compound 0.01 µM",66.9%
same,"viability, T/C",[19],57.7%
same,"viability, T/C",[20],50.3%
same,"viability, T/C",[21],36%
same,"viability, T/C",[22],31.8%
same,"viability, T/C","second compound 0.0949 µM, first compound 0.00316 µM",94.5%
same,"viability, T/C","second compound 0.0949 µM, first compound 0.01 µM",64.9%
same,"viability, T/C",[25],53.8%
same,"viability, T/C",[26],45.6%
same,"viability, T/C",[27],37.2%
same,"viability, T/C",[28],33.2%
same,"viability, T/C","second compound 0.3 µM, first compound 0.00316 µM",91.5%
same,"viability, T/C","second compound 0.3 µM, first compound 0.01 µM",78.3%
same,"viability, T/C",[31],62.2%
same,"viability, T/C",[32],40.1%
same,"viability, T/C",[33],33.3%
same,"viability, T/C",[34],33.5%
